# Reference: patent publication US6825209B2, “Compounds having unique CB1 receptor binding selectivity and methods for their production and use” (Research Triangle Institute, priority 2002, dated 2004)
# Where two headings read alike, the source gives them in different places.
# Legend:
# Format in all cases: binding
# [1] = molecular target: T1, CB1 receptor (Rattus norvegicus, UniProt P20272); experiment: Radioligand displacement in whole rat brain (CB1) membrane preparations; conditions: Tables 1 and 2
# T1 construct: Whole rat brains or dissected regions from live CD rats; tissue Charles River or Pel-Freez Biologicals; host or cells: whole rat brain (CD rats), P2 membrane
# T1 sequence (P20272 whole entry): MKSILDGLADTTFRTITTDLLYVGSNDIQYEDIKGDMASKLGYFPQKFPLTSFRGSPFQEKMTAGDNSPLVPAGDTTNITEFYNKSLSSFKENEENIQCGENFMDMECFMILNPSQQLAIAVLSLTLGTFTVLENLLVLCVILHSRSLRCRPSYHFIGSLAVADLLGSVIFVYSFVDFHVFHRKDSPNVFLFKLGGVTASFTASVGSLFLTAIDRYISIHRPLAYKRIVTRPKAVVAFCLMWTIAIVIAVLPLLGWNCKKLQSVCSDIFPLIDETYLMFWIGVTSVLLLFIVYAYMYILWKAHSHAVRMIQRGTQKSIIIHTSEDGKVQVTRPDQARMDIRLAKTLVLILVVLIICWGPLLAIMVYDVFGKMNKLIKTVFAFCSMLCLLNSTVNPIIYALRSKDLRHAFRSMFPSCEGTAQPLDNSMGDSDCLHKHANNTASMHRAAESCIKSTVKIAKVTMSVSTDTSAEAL
# In short: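 Washed P2 membranes from whole rat brain (ca. 0.2 mg/mL) in 50 mM Tris.HCl, 1 mM EDTA, 3 mM MgCl2, pH 7.4 were incubated with radioligand and compound for 1 h at 30 °C, then filtered. IC50 values came from one- or two-site nonlinear fits and were converted to Ki by Cheng-Prusoff. Duplicates were run across 3–6 experiments.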
# [2] = molecular target: T2, human CB2 receptor (Homo sapiens, UniProt P34972); experiment: Displacement of 3H-CP55,940 in human CB2 receptor-transfected cells (CHO-K1); conditions: radioligand 3H-CP55940, Tables 6 and 7
# T2 construct: expressed in transfected cells; host or cells: CHO-K1
# T2 sequence (P34972 whole entry): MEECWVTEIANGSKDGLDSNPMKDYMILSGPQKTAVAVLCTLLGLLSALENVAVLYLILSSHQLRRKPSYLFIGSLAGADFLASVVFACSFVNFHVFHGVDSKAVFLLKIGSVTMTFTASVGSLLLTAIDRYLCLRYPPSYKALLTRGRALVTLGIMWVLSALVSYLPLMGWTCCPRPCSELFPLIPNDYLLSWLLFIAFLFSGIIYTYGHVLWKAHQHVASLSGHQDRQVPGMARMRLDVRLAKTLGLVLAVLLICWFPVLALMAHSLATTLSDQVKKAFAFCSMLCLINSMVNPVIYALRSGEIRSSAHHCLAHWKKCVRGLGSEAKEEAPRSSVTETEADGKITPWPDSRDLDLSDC
# Method: Human CB2 receptor affinity. The relative selectivity of the analogs for CB1 versus CB2 receptors varied modestly regardless of the structural modifications examined to date.
# Methods—binding assay in transfected cell lines. The methods used for performing binding assays in transfected cells expressing human CB1 or CB2 receptors are those used above. The CB1 receptor involved a HEK-293 expression system whereas the CB2 receptor was expressed in CHO-K1 cells. […] The incubations and separations were then performed as described above for rat brain membrane preparations.
# Data analysis. Saturation and displacement data were analyzed by unweighted nonlinear regression of receptor binding data. For displacement studies, curve-fitting and IC50 calculation were done with GraphPad Prism (GraphPad Software, Inc., San Diego, Calif.), which fits the data to one and two-site models and compares the two fits statistically. A similar approach was used for the analysis of isotherm data for calculation of Kd's. A two-site fit was accepted only if it was statistically significant (p<0.05) and the following results were not observed:
# IC50 values were then converted to Ki values by reported methods (Cheng and Prusoff, 1973). The statistical evaluation of curve-fitting data allowed for a non-arbitrary conclusion based on the displacement data.
# [3] = molecular target: T3, human CB1 receptor (Homo sapiens, UniProt P21554); experiment: Radioligand displacement in human CB1 receptor-transfected cells (HEK-293)
# T3 construct: expressed in transfected cells; host or cells: HEK-293
# T3 sequence (P21554 whole entry): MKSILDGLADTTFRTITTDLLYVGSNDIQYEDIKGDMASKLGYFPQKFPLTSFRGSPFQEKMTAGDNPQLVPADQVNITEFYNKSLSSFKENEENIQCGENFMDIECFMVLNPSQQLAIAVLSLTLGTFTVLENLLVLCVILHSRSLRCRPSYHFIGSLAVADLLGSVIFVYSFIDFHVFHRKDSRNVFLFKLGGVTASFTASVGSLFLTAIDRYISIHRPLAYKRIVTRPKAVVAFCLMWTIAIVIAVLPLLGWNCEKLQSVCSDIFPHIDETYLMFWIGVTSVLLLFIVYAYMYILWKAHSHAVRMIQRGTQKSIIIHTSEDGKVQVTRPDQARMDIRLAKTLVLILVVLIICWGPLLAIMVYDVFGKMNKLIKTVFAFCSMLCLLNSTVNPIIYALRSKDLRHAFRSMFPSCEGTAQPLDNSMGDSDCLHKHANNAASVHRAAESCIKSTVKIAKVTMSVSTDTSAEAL
# In short: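 Radioligand displacement was run on HEK-293 cells expressing human CB1, with incubation and separation as for rat brain membranes. IC50 values came from one- or two-site nonlinear regression and were converted to Ki by Cheng-Prusoff.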
# [4] = read-out: Ki, displacement of 3H-CP55940, whole rat brain membranes, radioligand 3H-CP55940
# [5] = read-out: Ki, displacement of 3H-SR141716A, whole rat brain membranes, radioligand 3H-SR141716A
# [6] = whole rat brain membranes, radioligand 3H-CP55940
# [7] = whole rat brain membranes, radioligand 3H-SR141716A
# [8] = read-out: Ki, displacement of 3H-CP55940, human CB2 transfected cells
# [9] = Ki, displacement of 3H-WIN55212-2, whole rat brain membranes, radioligand 3H-WIN55212-2
# [10] = whole rat brain membranes, radioligand 3H-WIN55212-2
# [11] = displacement of 3H-CP55940, human CB1 transfected cells, radioligand 3H-CP55940, Table 3
# [12] = displacement of 3H-SR141716A, human CB1 transfected cells, radioligand 3H-SR141716A, Table 3
# [13] = displacement of 3H-WIN55212-2, human CB1 transfected cells, radioligand 3H-WIN55212-2, Table 3
# [14] = human CB1 transfected cells, radioligand 3H-CP55940, Table 3
# [15] = human CB1 transfected cells, radioligand 3H-SR141716A, Table 3
# [16] = human CB1 transfected cells, radioligand 3H-WIN55212-2, Table 3
SMILES,"Ki [1, 4] [nM]","Ki [1, 5] [nM]","Max. Disp. %, 3H-CP55940 [1, 6] [%]","Max. Disp. %, 3H-SR141716A [1, 7] [%]","Max. Disp. %, 3H-CP55940 ([2]; human CB2 transfected cells) [%]","Ki [2, 8] [nM]","Ki [1, 9] [nM]","Max. Disp. %, 3H-WIN55212-2 [1, 10] [%]","Ki [3, 11] [nM]","Ki [3, 12] [nM]","Ki [3, 13] [nM]","Max. Disp. %, 3H-CP55940 [3, 14] [%]","Max. Disp. %, 3H-SR141716A [3, 15] [%]","Max. Disp. %, 3H-WIN55212-2 [3, 16] [%]",also measured
Cc1c(C(=O)NN2CCOCC2)nn(-c2ccc(Cl)cc2Cl)c1-c1ccc(Cl)cc1 [MF9725-33D],22.9,21,96.2,100,54.5,2400,–,–,–,–,–,–,–,–,–
CCCCCCCNC(=O)c1nn(-c2ccc(Cl)cc2Cl)c(-c2ccc(Cl)cc2)c1C [MF9725-133-25],–,–,81.7,97.9,47.8,–,28.8,69.6,–,–,–,–,–,–,"Ki ([1]; Ki, displacement of 3H-CP55940, whole rat brain membranes, radioligand 3H-CP55940): 46.2 nM; Ki ([1]; Ki, displacement of 3H-SR141716A, whole rat brain membranes, radioligand 3H-SR141716A): 19 nM; Max. Disp. %, 3H-CP55940 [3]: 85.3%; Max. Disp. %, 3H-SR141716A [3]: 67.9%; Max. Disp. %, 3H-WIN55212-2 [3]: 53.4%; Ki ([3]; displacement of 3H-CP55940): 29.1 nM; Ki ([3]; displacement of 3H-SR141716A): 9.3 nM; Ki ([3]; displacement of 3H-WIN55212-2): 393 nM; Ki ([2]; Ki, displacement of 3H-CP55940, human CB2 transfected cells): 4030 nM"
Cc1c(C(=O)NC2CCCCC2)nn(-c2ccc(Cl)cc2Cl)c1-c1ccc(Cl)cc1 [MF9725-66-11],2.46,1.07,96.1,100,84.5,228,2.23,92.6,7.06,1.02,5.36,92.3,99.9,96.8,–
Cc1c(C(=O)NC(C)C)nn(-c2ccc(Cl)cc2Cl)c1-c1ccc(Cl)cc1 [MF9725-65-11],29.4,12.9,88.3,100,68.3,1740,36.1,90.6,91,14.4,692,85.4,100,93.6,–
CCCCNC(=O)c1nn(-c2ccc(Cl)cc2Cl)c(-c2ccc(Cl)cc2)c1C [MF9725-64-17],13.4,12.8,91.9,100,75.6,1600,32.8,90.8,28,4.79,29.8,90.2,97.4,93.2,–

# The next lines start with results.
"Ki [1, 4] [nM]","Ki [1, 5] [nM]","Max. Disp. %, 3H-CP55940 [1, 6] [%]","Max. Disp. %, 3H-SR141716A [1, 7] [%]","Max. Disp. %, 3H-CP55940 ([2]; human CB2 transfected cells) [%]","Ki [2, 8] [nM]","Ki [1, 9] [nM]","Max. Disp. %, 3H-WIN55212-2 [1, 10] [%]","Ki [3, 11] [nM]","Ki [3, 12] [nM]","Ki [3, 13] [nM]","Max. Disp. %, 3H-CP55940 [3, 14] [%]","Max. Disp. %, 3H-SR141716A [3, 15] [%]","Max. Disp. %, 3H-WIN55212-2 [3, 16] [%]",SMILES,also measured
18.2,10.7,87.3,98.6,66.9,6870,16.6,77.9,124,23.5,85.4,85.6,75.4,52.7,CCCCCCNC(=O)c1nn(-c2ccc(Cl)cc2Cl)c(-c2ccc(Cl)cc2)c1C [MF9725-132-25],–
11.5,9.22,96.7,100,80.0,704,46.4,90.9,93.6,14.3,127,70.1,99.5,100,Cc1c(C(=O)NCC(C)C)nn(-c2ccc(Cl)cc2Cl)c1-c1ccc(Cl)cc1 [MF9725-68-10],–
